Laboratory results taken from US20240116971A1, “NMN AND DERIVATIVES FOR ITS USE IN THE TREATMENT OF DEPRESSION AND/OR ANXIETY IN PATIENTS HAVING A FORM OF PARKINSONISM” (Nuvamid SA, priority 2021, published 2024).

Key:
Format in all cases: in vivo, human
[1] = Blood level of NMN and NAD
From the text: The secondary objectives describe the characteristics of the patients who participated in the research, and aim at studying the pharmacokinetics of NMN in daily oral use and its impact on increasing NAD+ levels, and, in a preliminary way, at evaluating the potential benefits of NMN supplementation on the symptomatology related to multi-systemic atrophy syndrome MSA such as activities of daily living, motor disorders, orthostatic hypotension and autonomy using the validated […] scale. [table] Also, an aliquot of serum is stored at the laboratory at -80° C. for the determination of the patient's physiological NAD+ (Baseline) level by the promoter. The results are sent to the investigating responsible for checking these parameters (regarding the laboratory's standards) and validating or not the patient's eligibility. […] Also, an aliquot of acidified whole blood is stored at the AML at -80° C. for the determination of NMN metabolites. The hemodynamic constants (BP and HR standing up/lying down) are taken and entered in the patient's follow-up notebook by the nurse. The nurse also questions the patient on the possible occurrence of adverse events and checks the patient's compliance with treatment by filling in his or her follow-up notebook and pill box. On receipt, the investigating physician check the results: the blood parameters must be within the reference value limits and/or judged by the investigating physician as not clinically relevant. Otherwise, the patient is summoned without delay by the investigating physician to leave the study prematurely.

MSA patients [2] = test: Safety of NMN dietary supplement: hemodynamic, blood count, inflammatory, liver, kidney, cardiac/muscular, metabolic parameters, adverse events
Description: The purpose of the multicentric, prospective, non-randomised, non-controlled pilot study is to study the efficacy of NMN administration in MSA patients (45-80 years old) at a larger scale. In this study, the safety, tolerance and efficacy of a dose of NMN are evaluated. The amount of NMN to be ingested daily is divided into 2 capsules (Size 0). Each patient takes 2 capsules/day in the morning during breakfast with a big glass of water. The composition of each capsule is as follows:
The main objectives of the study are to evaluate the safety of the dietary supplement during a 12-week supplementation. The safety of the food supplement is assessed in terms of: • a) Hemodynamic parameters: • Blood pressure (systolic and diastolic arterial pressure (SAP, DAP) standing up and lying down (2 min)), • Heart rate (HR, standing up/lying down (2 min)). • b) Blood Formula Counting: • Hematies, • Leukocytes (lymphocytes, monocytes, neutrophils, basophils, eosinophils), • Platelets. • c) Inflammatory parameters: • C Reactive Protein (CRP), • Sedimentation rate. • d) Liver function: • ASAT, • ALAT, • gamma GT, • Alkaline phosphatases. • e) Kidney function: • Creatinemia, • Urea. • Cardiac and muscular function: • Creatine Phosphokinase (CPK). • f) Metabolic/biochemical parameters: • lonogram (Na+, K+, Cl−), • glycated hemoglobin • g) Occurrence of undesirable effects.
48 hours before each follow-up visit by the neurological investigator, a nurse visits the patient's home to take blood samples and measure the hemodynamic parameters [SAP/DAP lying down, standing up (2 min) and HR lying down, standing up (2 min)]. In addition, during each visit, the possible occurrence of adverse events will be asked to patients. The nurse visits are scheduled between D-7 and D-2 to confirm the patient's inclusion, then at D13 (for visit V2 at D15), D43 (for visit V3 at D45) and D88 (for the end of study visit at D90). No fasting was required for the biologic assessments. To ensure the safety of the food supplement, all biological parameters must be within the limits of reference values and/or judged by the investigating physician as non-clinical.
Safety biology, pharmacokinetics and hemodynamic constants (D13; D43; D88): A blood sample is collected by a nurse at patient's home 48 hours before the visit to the investigational site (D13; D43 and D88) so that the investigator has the biological safety results on the day of the consultation.
The required bioassessment is the same as the inclusion one (D-2) and include: • Complete and differential Blood cells Counts, • Metabolic/biochemical parameters: lonogram (Na+, K+, Cl−), Glycated hemoglobin (HbA1C) • Inflammatory assessment: CRP, sedimentation rate, • Liver check-up: AST, ALT, gamma GT, ALP, bilirubin • Renal assessment: Creatinemia, urea, • Cardiac and muscular assessment: CPK;
Also, an aliquot of acidified whole blood is stored at the AML at −80° C. for the determination of NMN metabolites. The hemodynamic constants (BP and HR standing up/lying down) are taken and entered in the patient's follow-up notebook by the nurse. The nurse also questions the patient on the possible occurrence of adverse events and checks the patient's compliance with treatment by filling in his or her follow-up notebook and pill box. On receipt, the investigating physician check the results: the blood parameters must be within the reference value limits and/or judged by the investigating physician as not clinically relevant. Otherwise, the patient is summoned without delay by the investigating physician to leave the study prematurely.
At D90, the safety and tolerance of the study product is assessed by the investigating physician during the visits provided for in the protocol by means of an interview with the patient, information gathered by the volunteer in the daily diary, a clinical examination (including blood pressure and heart rate measurements) and a blood test. All patients continued to take their usual treatment for MSA.

MSA patients [3] = test: Quality of life, MSA-QoL self-questionnaire; settings: for MSA-QoL non-motor subscore, average difference compared to V1: V1 30.4±10.0 points; for MSA-QoL Motor subscore, average difference compared to V1: V1 40.1±19.0 points
From the text: [table] At this visit, the investigator checks the patient's completed follow-up notebook (compliance, adverse event (AE), treatments) and carries out an interrogation and clinical examination, including the taking of standing and lying hemodynamic constants (SAP/DAP and HR) in order to check the tolerance and the possible occurrence of an adverse event. Compliance is also monitored. The patient is asked to complete a quality of life questionnaire (MSA-QoL). Quality of life—MSA—QoL: the MSA-QoL scale is organized into 4 subsections: • Motor sub-score: items 1 to 14; • Non-motor sub-score: items 15 to 26; • Emotional/social sub-score: items 27 to 40. • Overall satisfaction of quality of life of 100 mm to describe the patient's overall satisfaction with their life.

[4] = 3-month supplementation with NMN (400 mg/day) per os, MSA patients, mITT and PP
[5] = at 3 months, mITT and PP populations
[6] = mITT population, V3, p-value >0.05
[7] = mITT population, V4, p-value >0.05

NC(=O)c1ccc[n+]([C@@H]2O[C@H](COP(=O)([O-])O)[C@@H](O)[C@H]2O)c1 [beta-NMN, nicotinamide mononucleotide]
blood levels of NAD [1, 4]: gradually increases
blood levels of NMN [1, 4]: gradually increases
blood NAD level, mean value ([1]; mITT population, V4 (n=8 subjects), NMN 400 mg/day per os, V1 16183.57±4205.09 (n=4 subjects)): 29194.12 ± 9706.95 ng/mL
ionogram and glycated hemoglobin level (MSA patients [2]; 3-month follow-up): stable
impact on liver function (MSA patients [2]; 3 months): does not thus have an impact
induction of inflammation (MSA patients [2]; 3 months): does not thus induce inflammation
creatine phosphokinase (MSA patients [2]; 3 months of follow-up): relatively stable
liver parameters (MSA patients [2]; 3 months of follow-up): relatively stable
renal parameters (MSA patients [2]; 3 months of follow-up): relatively stable
inflammatory parameters (MSA patients [2]; 3 months of follow-up, within or outside reference values, not clinically relevant): relatively stable
blood count values (MSA patients [2]; 3 months of follow-up, within reference limits or not clinically relevant): relatively stable
safety and tolerance, conclusion (MSA patients [2]; MSA patients, 3 months): safe and well-tolerated
increase in average blood pressure and heart rate (MSA patients [2]; NMN 400 mg/day, 3 months): does not thus lead to an increase
mean heart rate (HR) (MSA patients [2]; NMN 400 mg/day, 3 months, V0-V4 comparison p-value=0.2969): normal and stable over time
Mean systolic blood pressure (MSA patients [2]; NMN 400 mg/day, 3 months, V0-V4 comparison p-value=0.6172): normal and stable over time
Mean diastolic blood pressure (MSA patients [2]; NMN 400 mg/day, 3 months, V0-V4 comparison p-value=0.6719): normal and stable over time
concentration of electrolytes (Na+, K+, Cl−) and glycemia (MSA patients [2]; after 3 months of treatment): does not affect
impact on heart and muscle function (MSA patients [2]; after 3 months of treatment): does not have an impact
Overall satisfaction with quality of life, scaling (MSA patients [3]; PP population, V3 and V4 compared to V1): slight increase
MSA-QoL Emotional/Social sub-score (MSA patients [3]; [5]): improvement
MSA-QoL Motor subscore (MSA patients [3]; [5]): improvement
MSA-QoL non-motor subscore (MSA patients [3]; [5]): improvement
Overall satisfaction with quality of life, scaling (MSA patients [3]; mITT population, V2, V3 and V4 compared to V1, p-value >0.05): very slight decrease
MSA-QoL non-motor subscore, average difference compared to V1 (MSA patients [3]; mITT population, V2, 0 to 48, higher is worse, p-value >0.05): −2.0 points
MSA-QoL Motor subscore, average difference compared to V1 (MSA patients [3]; mITT population, V2, 0 to 56, higher is worse, p-value >0.05): −1.3 points
MSA-QoL non-motor subscore, average difference compared to V1 (MSA patients [3]; [6]): −5.2 points
MSA-QoL Motor subscore, average difference compared to V1 (MSA patients [3]; [6]): −5.6 points
MSA-QoL non-motor subscore, average difference compared to V1 (MSA patients [3]; [7]): −4.1 points
MSA-QoL Motor subscore, average difference compared to V1 (MSA patients [3]; [7]): −5.1 points
